Experimental data from publication PMC12656566, “Toxicokinetic Characterization of MDM Hydantoin via Stable Metabolite DMH: Population Modeling for Predicting Dermal Formaldehyde Formation” (Toxics, 2025).
Where two headings read alike, the source gives them in different places.

Assay: Population toxicokinetic modeling of MDMH and DMH plasma data (IV and TD)
Type: in vivo
Conditions: population estimate, rats; for Vd / clearance: male, Sprague-Dawley, rat, plasma, other: intravenous and transdermal data pooled
Method: POP-TK modeling was performed to develop a compartment model describing the disposition of MDMH and DMH following different administration routes. Plasma concentration data from all studies were combined for model development.
The compartment model was designed to fit the absorption phase following TD application, disposition kinetics of MDMH and DMH following IV injection. The disposition phase of MDMH was described with a one-compartment model.
For transdermal application, MDMH applied to the skin undergoes simultaneous absorption and metabolic conversion to DMH and formaldehyde. This process was described by a first-order rate constant (ka,met) representing the combined absorption-metabolism kinetics. The parameter Fa,met represents the fraction of applied dose that penetrates the skin and undergoes metabolic conversion, accounting for incomplete absorption.
DMH formed in the skin compartment subsequently undergoes absorption into systemic circulation. This absorption was modeled using a first-order rate constant (ka,DMH) with three transit compartments to describe the delayed appearance of DMH in plasma.
The disposition of MDMH and DMH was assessed using a linear model with a central and one, two, or three peripheral compartments. The model incorporated both skin metabolism and systemic metabolism of MDMH to DMH. Systemic metabolism was described by the […], representing the fraction of eliminated MDMH that is converted to DMH in the central compartment. Molecular weight correction was applied to account for stoichiometric conversion relationships.
The final disposition and elimination compartment model was determined to use one central compartment for MDMH and one central and one peripheral compartment for DMH based on the objective function.
The differential equations for the amounts of MDMH in the central (XCentral,MDMH) compartments and DMH in the central (XCentral,DMH) and peripheral (XPeripheral,DMH) compartments were:(7) dXCentral,MDMH/dt=−CLMDMH·CCentral,MDMH (8) dXCentral,DMH/dt=−CLDMH·CCentral,DMH−CLDDMH·CCentral,DMH+CLDDMH·CPeripheral,DMH+ka,DMH·XTransit3,DMH+(MWDMH/MWMDMH)·CLMDMH·CCentral,MDMH (9) dXPeripheral,DMH/dt=+CLDDMH·CCentral,DMH−CLDDMH·CPeripheral,DMH
CCentral,MDMH and CCentral,DMH represent MDMH and DMH plasma concentrations in respective compartments and CPeripheral,DMH represent DMH concentration in peripheral compartment. CLMDMH and CLDMH were systemic clearance of MDMH and DMH and CLDDMH was distribution clearance.
The plasma concentrations of MDMH and DMH were simultaneously modeled and predicted using POP-TK modeling with the stochastic approximation expectation maximization (SAEM) algorithm in the parallelized Monolix® 2023R1 (Lixoft, Antony, Paris, France) and Berkeley Madonna version 8.3.11 (University of California at Berkeley, Berkeley, CA, USA). An importance sampling SAEM was used for population parameter estimation to describe the between-subject variability (BSV) for each parameter estimate.

Compound | Vd (Mean (BSV), read-out: Central volume of distribution for DMH (Vc,DMH)) [L] | clearance (Mean (BSV), read-out: Clearance for DMH (CLDMH) (converted)) [mL/min] | Absorption rate constant for DMH into the central compartment from skin (ka,DMH) (Mean (BSV)) | Distribution clearance for DMH (CLDDMH) (Mean (BSV)) | Peripheral volume of distribution for DMH (Vp,DMH) (Mean (BSV)) | absorption rate constant for DMH (ka,DMH) [h⁻¹] | Vd (Mean (BSV), read-out: Central volume of distribution for MDMH (Vc,MDMH)) [L] | clearance (Mean (BSV), read-out: Clearance for MDMH (CLMDMH) (converted)) [mL/min] | Absorption-metabolism rate constant for MDMH in skin (Ka,met) (Mean (BSV)) | combined absorption-metabolism rate constant (ka,met) [h⁻¹]
CC1(C)NC(=O)NC1=O [DMH, 5,5-dimethylhydantoin] | 0.32 | 3.17 | 8.03 (38.33) 1/h | 5.73 (71.8) L/h | 0.43 (35.86) L | 8.03 | – | – | – | –
CC1(C)C(=O)NC(=O)N1CO [MDMH, 1-(Hydroxymethyl)-5,5-dimethylhydantoin] | – | – | – | – | – | – | 1.18 | 2460 | 0.31 (6.44) 1/h | 0.31
